Reference: patent US20240293400A1, “NOVEL AZAINDOLE DERIVATIVES AS ANTIVIRAL AGENTS” (Centre National de la Recherche Scientifique, priority 2021, published 2024)

What was measured:
Axl = Axl (Homo sapiens (Human), UniProt P30530); test: Kinase panel Z'-LYTE/Adapta SelectScreen and IC50 determination; type: biochemical; conditions: for Percentage inhibition AXL: 100 nM in 1% DMSO; for IC50: 10 concentrations between 100 nM and 0.00495 nM
Experimental: FIG. 2: […] The compounds are screened in DMSO at 1% final. The kinases were diluted in a concentrated concentration twice in kinase buffer. All the ATP solutions were diluted in a 4-fold concentrated working concentration (50 mM HEPES pH 7.5, 0.01% BRIJ-35, 10 mM MgCl2, 1 mM EGTA). […] The inhibitory activity of the compounds on a panel of kinases including, inter alia, AXL and FLT3 was evaluated by Thermo Fisher Scientific using Z′-LYTE® and Adapta® Select Screen technology. The fluorescence-based biochemical test uses coupled enzymes and is based on the difference in sensitivity of the phosphorylated and non-phosphorylated peptides to proteolytic cleavage. The peptide substrate is labeled with 2 fluorophores—one at each end—allowing fluorescence transfer (FRET). […] The Axl or FLT3 kinases were diluted at a two-fold concentration in kinase buffer. All the ATP solutions are diluted in a 4-fold working concentration (50 mM HEPES PH 7.5, 0.01% BRIJ-35, 10 mM MgCl2, 1 mM EGTA).

WNV virus, Kunjin strain = test: Antiviral activity against the WNV virus, Kunjin strain in HeLa cells; type: cell-based; conditions: summary table
SARS-COV-2 = test: Anti-SARS-COV-2 activity in primary human bronchial epithelium model (MucilAir); type: cell-based; conditions: 1.25 μM, 24 hours, qRT-PCR

Axl, sequence (P30530 26-894): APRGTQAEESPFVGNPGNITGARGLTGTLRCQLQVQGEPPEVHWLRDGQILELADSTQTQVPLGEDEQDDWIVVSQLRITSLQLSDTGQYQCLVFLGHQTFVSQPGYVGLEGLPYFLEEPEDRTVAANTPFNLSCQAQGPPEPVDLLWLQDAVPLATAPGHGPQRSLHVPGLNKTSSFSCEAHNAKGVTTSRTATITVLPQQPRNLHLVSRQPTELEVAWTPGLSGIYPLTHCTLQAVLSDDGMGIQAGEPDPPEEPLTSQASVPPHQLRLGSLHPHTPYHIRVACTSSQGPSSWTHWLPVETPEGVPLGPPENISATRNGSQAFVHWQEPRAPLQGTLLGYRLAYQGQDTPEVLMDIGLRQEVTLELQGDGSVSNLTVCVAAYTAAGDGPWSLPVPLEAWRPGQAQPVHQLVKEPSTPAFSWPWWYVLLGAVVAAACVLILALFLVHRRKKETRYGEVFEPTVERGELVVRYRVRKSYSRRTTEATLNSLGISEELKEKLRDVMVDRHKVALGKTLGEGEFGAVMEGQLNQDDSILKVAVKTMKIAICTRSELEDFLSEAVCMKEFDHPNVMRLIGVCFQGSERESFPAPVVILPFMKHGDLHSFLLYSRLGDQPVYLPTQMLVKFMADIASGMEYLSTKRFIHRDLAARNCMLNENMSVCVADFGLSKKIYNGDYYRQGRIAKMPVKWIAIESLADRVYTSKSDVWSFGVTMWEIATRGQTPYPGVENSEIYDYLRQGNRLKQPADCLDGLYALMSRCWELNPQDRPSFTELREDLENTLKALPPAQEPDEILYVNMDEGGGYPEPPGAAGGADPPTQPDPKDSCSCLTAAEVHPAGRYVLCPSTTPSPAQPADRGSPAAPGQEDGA

SMILES | Percentage inhibition AXL (Axl) | IC50 (Axl) | selectivity with respect to Axl relative to FLT3 (Axl; from IC50 Axl and IC50 FLT3) | active on infectious model KUNV (WNV virus, Kunjin strain) | infection of the primary bronchial epithelium by SARS-COV-2 (SARS-COV-2)
CN1CCN(Cc2cccc(-c3cnc4[nH]cc(-c5cc(NC(=O)Nc6ccccc6)ccc5F)c4c3)c2)CC1 [Compound 3] | 94% | 6.3 nM | shows a selectivity with respect to Axl relative to FLT3 |  | 
CN1CCN(Cc2cccc(-c3cnc4[nH]cc(-c5cc(CNCc6ccccc6)ccc5F)c4c3)c2)CC1 [Compound 2] | 95% | 2.36 nM |  | ACTIVE | 
CN1CCN(Cc2cccc(-c3cnc4[nH]cc(-c5cc(CNCCc6ccc(O)cc6)ccc5F)c4c3)c2)CC1 [Compound 1] | 95% | 5.36 nM |  | ACTIVE | inhibits the infection
